# Where two headings read alike, the source gives them in different places.
# Legend:
# [1] = system: avian mesenchymal limb bud cells; conditions: cited from earlier work
# [2] = system: C2C12 cell line; assay: C2C12 conversion to osteoblastic phenotype, alkaline phosphatase histochemistry; assay type: cell-based
# Description: In vitro studies: The C2C12 cell line, an in vitro model of chondrocyte differentiation and maturation, was obtained from ATCC and cultured in DMEM plus 10% normal bovine serum for 4 days as previously described (Katagiri, T., et al. 1994). In addition, cells were treated with BMP-2 (300 ng/mL) or alternatively with BMP-2 plus PGE2 (10^−8M) or recombinant IL-1β (10 ng/mL) or butaprost (10^−8M) in the culture medium. At the end of the experiment, cells were fixed with 10% formalin. Alkaline phosphatase expression was evaluated using the BCIP/NBT histochemistry method (Vector Labs, Burlingame Calif.). Positively-stained cells were counted in 10 random 20× fields using an inverted Olympus CK41 microscope.
# [3] = system: growth plate; conditions: systemic injection; cited from earlier work
# [4] = system: mice; conditions: cited from earlier work
# [5] = system: μ-receptor; conditions: in vivo; cited from earlier work
# [6] = target: mouse recombinant DOR-1 receptor (Mus musculus, UniProt P32300); conditions: cited from earlier work
# Chain of mouse recombinant DOR-1 receptor (P32300 whole entry): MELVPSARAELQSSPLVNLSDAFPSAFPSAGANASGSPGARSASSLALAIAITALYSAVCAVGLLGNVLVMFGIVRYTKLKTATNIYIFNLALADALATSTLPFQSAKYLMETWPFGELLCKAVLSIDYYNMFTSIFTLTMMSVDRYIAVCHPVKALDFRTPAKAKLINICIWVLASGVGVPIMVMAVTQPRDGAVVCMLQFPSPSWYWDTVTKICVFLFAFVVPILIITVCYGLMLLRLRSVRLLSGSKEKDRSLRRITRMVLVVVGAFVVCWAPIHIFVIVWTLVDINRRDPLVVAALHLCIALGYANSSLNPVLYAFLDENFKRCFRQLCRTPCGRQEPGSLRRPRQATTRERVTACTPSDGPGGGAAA
# [7] = target: μ-receptors (Homo sapiens, UniProt P35372); conditions: cited from earlier work
# Chain of μ-receptors (P35372 whole entry): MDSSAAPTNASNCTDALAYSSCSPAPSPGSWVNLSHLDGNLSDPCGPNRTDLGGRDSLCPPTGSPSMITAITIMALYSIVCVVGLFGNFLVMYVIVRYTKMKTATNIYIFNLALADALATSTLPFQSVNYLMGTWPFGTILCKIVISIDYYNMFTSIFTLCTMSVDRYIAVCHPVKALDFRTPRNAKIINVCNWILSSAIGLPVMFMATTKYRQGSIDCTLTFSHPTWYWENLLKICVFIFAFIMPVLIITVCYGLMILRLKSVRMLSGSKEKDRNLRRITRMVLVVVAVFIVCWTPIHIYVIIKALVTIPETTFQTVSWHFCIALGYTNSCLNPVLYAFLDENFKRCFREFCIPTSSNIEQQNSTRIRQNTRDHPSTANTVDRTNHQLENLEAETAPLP
# [8] = target: δ-receptors (Homo sapiens, UniProt P41143); conditions: cited from earlier work
# Chain of δ-receptors (P41143 whole entry): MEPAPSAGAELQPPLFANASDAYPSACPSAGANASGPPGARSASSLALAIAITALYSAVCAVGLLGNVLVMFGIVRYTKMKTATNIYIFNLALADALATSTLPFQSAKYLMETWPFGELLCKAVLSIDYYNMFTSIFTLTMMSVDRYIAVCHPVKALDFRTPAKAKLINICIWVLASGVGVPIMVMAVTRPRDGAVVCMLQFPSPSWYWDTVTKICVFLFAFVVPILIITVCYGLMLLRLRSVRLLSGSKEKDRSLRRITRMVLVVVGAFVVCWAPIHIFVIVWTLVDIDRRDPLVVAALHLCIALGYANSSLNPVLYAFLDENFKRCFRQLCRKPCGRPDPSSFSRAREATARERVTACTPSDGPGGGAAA
# [9] = target: κ-receptors (Homo sapiens, UniProt P41145); conditions: cited from earlier work
# Chain of κ-receptors (P41145 whole entry): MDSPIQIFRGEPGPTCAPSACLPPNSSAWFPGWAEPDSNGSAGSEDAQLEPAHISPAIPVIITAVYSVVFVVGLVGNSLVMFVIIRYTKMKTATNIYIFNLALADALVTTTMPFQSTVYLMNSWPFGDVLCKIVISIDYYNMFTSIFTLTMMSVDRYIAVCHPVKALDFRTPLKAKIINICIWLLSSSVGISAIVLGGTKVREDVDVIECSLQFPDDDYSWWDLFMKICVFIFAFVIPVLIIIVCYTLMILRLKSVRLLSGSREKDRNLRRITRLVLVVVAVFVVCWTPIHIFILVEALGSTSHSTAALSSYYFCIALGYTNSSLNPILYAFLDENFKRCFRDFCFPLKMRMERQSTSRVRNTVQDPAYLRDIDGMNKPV
# [10] = system: C57BL/6 mice; assay: Intracisternal IL-1β injection, brain stem IHC for GFAP and CGRP; assay type: in vivo, mouse; conditions: 2 ng in 2 μl into the cisterna magna, two days later
# Description: Murine IL-1β (2 ng in 2 μl of normal saline) was injected […] in the cisterna magna of deeply anesthetized C57BL/6 mice (anesthetic: ketamine 40 mg/kg IP). Two days later, the mice were sacrificed, […] transcardially with 4% paraformaldehyde in phosphate buffered saline solution and the brain stem was harvested, frozed and cut at 18 μm thick horizontal sections which were collected on glass slides. The histology slides were then analyzed by immunohistochemistry (IHC) using antibodies raised against calcitonin gene-related peptide (CGRP; […]) and glial fibrillary acidic protein (GFAP; Dako).
# [11] = MOR-1 knockout mice, disruption in exon-1
molecule,measurement,setting,value
"CCCCC[C@H](O)/C=C/[C@H]1[C@H](O)CC(=O)[C@@H]1C/C=C\CCCC(=O)O [PGE2, prostaglandin E2]",chondrogenesis,[1],enhances chondrogenesis
same,chondrogenesis,[1]; in the presence of indomethacin,stimulates chondrogenesis
same,increase in the number of cells expressing alkaline phosphatase,"[2]; BMP-2 plus PGE2 (10^-8M), 4 days, versus BMP-2",approximately 5 fold
same,conversion of differentiating C2C12 cells to an osteoblastic phenotype,[2]; under the stimulus of BMP-2,acceleration of their conversion to an osteoblastic phenotype
same,growth plate and limb growth,[3],thinner growth plate with decreased size of hypertrophic chondrocytes and reduced limb growth
CC(=O)Oc1ccc2c3c1O[C@H]1[C@@H](OC(C)=O)C=C[C@H]4[C@@H](C2)N(C)CC[C@@]341 [heroin],antinociception,[4]; [11],still produce antinociception
same,antinociception,[4]; mice of the CXBX strain,potently antinociceptive
COc1ccc2c(c1)c(CC(=O)O)c(C)n2C(=O)c1ccc(Cl)cc1 [indomethacin],chondrogenesis,[1],inhibit chondrogenesis
CN1CC[C@]23c4c5ccc(O)c4O[C@H]2[C@@H](O[C@@H]2O[C@H](C(=O)O)[C@@H](O)[C@H](O)[C@H]2O)C=C[C@H]3[C@H]1C5 [morphine-6b-glucuronide],antinociception,[4]; [11],still produce antinociception
same,antinociception,[4]; mice of the CXBX strain,potently antinociceptive
CN1CC[C@]23c4c5ccc(O)c4O[C@H]2[C@@H](O)C=C[C@H]3[C@H]1C5 [morphine],antinociception,[4]; [11],not
same,antinociception,[4]; mice of the CXBX strain,poor antinociceptive agent
C=CCN1CC[C@]23c4c5ccc(O)c4O[C@H]2/C(=N\N)CC[C@@]3(O)[C@H]1C5 [naloxazone],induction of morphine dependence,[5],did not block
same,morphine-induced antinociception,[5],selectively blocked
same,morphine-induced respiratory depression,[5],did not block
"Oc1ccc2c3c1O[C@H]1c4oc5ccccc5c4C[C@@]4(O)[C@@H](C2)N(CC2CC2)CC[C@]314 [naltriben, Naltriben]",displacement of [3H]-diprenorphine binding,[6],more highly displaced by naltriben than BNTX
"β-endorphin: endogenous opioid peptide from pro-opiomelanocortin, SEQ ID NO: 129",affinity for μ-receptors,[7],equiactive at μ- and δ-receptors
same,affinity for δ-receptors,[8],equiactive at μ- and δ-receptors
same,affinity for κ-receptors,[9],much lower affinity
"IL-1β: murine interleukin-1β cytokine injected into the cisterna magna (protein, UniProt P10749 118-269, looked up) Interleukin-1 beta: VPIRQLHYRLRDEQQKSLVLSDPYELKALHLNGQNINQQVIFSMSFVQGEPSNDKIPVALGLKGKNLYLSCVMKDGTPTLQLESVDPKQYPKKKMEKRFVFNKIEVKSKVEFESAEFPNWYISTSQAEHKPVFLGNNSGQDIIDFTMESVSS",expression of CGRP in the descending trigeminal nucleus (medullary dorsal horn),[10],induced
same,expression of GFAP in the descending trigeminal nucleus (medullary dorsal horn),[10],induced

# — patent publication US20100286233A1, “PERIPHERAL AND NEURAL INFLAMMATORY CROSSTALK” (University of Rochester, priority 2006, published 2010)
